# Laboratory results from PMC12040169 (PLOS Biology, 2025).
# Assays:
# [1] = tested on: T1, CTL2-GFP (C. trachomatis L2/434/Bu, GFP-expressing); assay: microbe, parasite or virus in culture; parameters: Intracellular C. trachomatis growth in HeLa cells, bulk GFP fluorescence relative to DMSO; details: Chlamydia trachomatis, HeLa, 28.5 h; bulk GFP, mean of 2; read-out: % of control remaining
# T1 construct: L2/434/Bu, GFP-expressing
# Procedure: MICs were calculated as described above.
# in vitro [2] = assay: in vitro; parameters: Viability of infected HeLa host cells, resazurin conversion, bulk resorufin fluorescence relative to DMSO; details: human, hela cells; bulk resorufin, mean of 2
# [3] = tested on: T2, C. trachomatis L2/434/Bu expressing GFP (CTL2-GFP); assay: microbe, parasite or virus in culture; parameters: C. trachomatis total inclusion area by high-content imaging, normalised to DMSO; details: Chlamydia trachomatis, HeLa, 28.5 h; total inclusion area; read-out: % of control remaining
# T2 construct: L2/434/Bu GFP intracellular growth in HeLa cells
# Outline: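 After bulk GFP and resorufin reads, fixed cells were Hoechst-stained and imaged to count chlamydial inclusions and host nuclei. Total inclusion area and number tracked bacterial growth, and nuclei number tracked host viability. MICs were derived, and 36,785 drug-like molecules were screened this way.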
# in vitro [4] = details: human, hela cells, % viability
Compound,activity at 1 µM [1] [%],activity at 5 µM [1] [%],activity at 10 µM [1] [%],"viability at 28.5 h, 1 µM (in vitro [2]) [%]","viability at 28.5 h, 5 µM (in vitro [2]) [%]","viability at 28.5 h, 10 µM (in vitro [2]) [%]",activity at 1 µM [3] [%],activity at 5 µM [3] [%],activity at 10 µM [3] [%],"viability at 28.5 h, 10 µM (in vitro [4]) [%]"
Nc1ncc(-c2ccc(C(=O)N3CCOCC3)cc2)cc1C(=O)NCc1ccc(Cl)c(Cl)c1 [CBK158570],97.9,89.9,72,91.9,93.3,93.8,87.8,108,65.8,109
CCc1nnc(NS(=O)(=O)c2ccc(NC(=O)COc3ccc(Cl)cc3Cl)cc2)s1 [CBK200050],112,48.5,22.1,104,96.7,98.4,99.2,67,37.8,108
NC(=O)c1[nH]nc(C2OC(CO)C(O)C2O)c1O (centres unmarked) [CBK201236],15.5,10.1,9.69,92.8,92.1,93.8,23.4,16,13.6,95.1
Nc1nc(F)nc2c1ncn2[C@H]1C[C@@H](O)[C@@H](CO)O1 [CBK201337],52.9,11.5,14.4,93.5,79.2,72.6,50.4,4.65,1.29,77.6
Nc1ccc(C(=O)Nc2ccc(-c3nc4ccc(NC(=O)c5ccc(N)cc5)cc4[nH]3)cc2)cc1 [CBK261147],149,133,160,88.3,93.2,103,101,76.7,91.9,109
C/C(=N\Nc1nnc2c(n1)[nH]c1ccccc12)c1ccccn1 [CBK262054],18,12.2,10.5,87.3,69.7,70.2,18.7,2.45,1.6,94.5
CCc1nnc(NS(=O)(=O)c2ccc(N/C=C3\C(=O)N(c4ccc(C)cc4)N=C3C)cc2)s1 [CBK262395],87,17.9,18.6,96,101,91.7,116,36.9,35,100
O=[N+]([O-])c1ccc2[nH]c3c(c2c1)CCCC3NC1CCN(CCc2ccccc2)CC1 (centres unmarked) [CBK262874],58.5,25.9,16.1,91.5,84.8,76.1,60.6,15.1,3.02,77.1
O=C(N/N=C/c1ccc(Sc2cccc3cccnc23)o1)c1cccc(F)c1 [CBK263263],12,3.14,0,101,99.9,108,21,4.03,0.368,87.9
Cc1cc(NS(=O)(=O)c2ccc(Nc3nc(-c4ccccn4)cs3)cc2)no1 [CBK263302B],105,88.6,49.5,90.8,93.6,99.8,76.5,93.3,56.4,93.1
Cc1noc(NS(=O)(=O)c2ccc(NC(=O)COc3ccccc3Br)cc2)c1C [CBK263918],97.7,57.6,25.5,96.5,96.5,95.3,91.6,88.5,31,89.4
Cc1c(OCc2cnn(-c3ccccc3)c2)ccc(-c2n[nH]c(C(F)(F)F)c2-c2ccccc2)c1O [CBK264962],89.8,73.9,49.7,109,90.9,97,82.3,57.5,20.9,104
CC(C)(CNS(=O)(=O)c1ccc(F)cc1)CNS(=O)(=O)c1ccc(F)cc1 [CBK265455],79.4,13.3,0,112,111,116,80.8,21.4,1.74,111
Cc1ccc2nsnc2c1S(=O)(=O)Nc1cccc2cccnc12 [CBK267051],108,79.7,47.8,76.3,60.6,60.9,87.7,88.5,34.4,46.9
O=C(CSCc1c(F)cccc1Cl)Nc1ccc(S(=O)(=O)N2CCCCC2)cc1 [CBK268034],82.4,35.6,27.1,91.9,104,101,90.3,35.6,13.2,90.4
O=C(Nc1ccc(S(=O)(=O)Nc2ncccn2)cc1)c1ccc2c(c1)OCCO2 [CBK268132],135,76.4,55.4,84,94.2,95.2,89.9,82.3,42.6,96.7
Cc1cc(NS(=O)(=O)c2ccc(NC(=S)NC(=O)C(C)(C)C)cc2)no1 [CBK268877],123,78.8,33.7,93.4,96.5,99.1,74.7,64,35.4,95.7
